Assay [1] concerns Mycobacterium tuberculosis. Nature of the assay: Antibacterial activity against Mycobacterium tuberculosis CNCTC My 331/88. It counts as functional.
Assay [2] deals with Mycobacterium kansasii. Kind of assay: Antibacterial activity against Mycobacterium kansasii isolate 6509/96. It counts as functional.
The subject of the next assay is Mycobacterium avium. Nature of the assay: Antibacterial activity against Mycobacterium avium CNCTC My 330/88. The assay is classed as functional.
The test system of assay [3] is Mycobacterium kansasii. Nature of the assay: Antibacterial activity against Mycobacterium kansasii CNCTC My 235/80. It counts as functional.
Assay [4] has as its target T1, Cysteine protease falcipain-3 (Plasmodium falciparum, UniProt Q9NAW4).
T1 sequence (Q9NAW4 whole entry): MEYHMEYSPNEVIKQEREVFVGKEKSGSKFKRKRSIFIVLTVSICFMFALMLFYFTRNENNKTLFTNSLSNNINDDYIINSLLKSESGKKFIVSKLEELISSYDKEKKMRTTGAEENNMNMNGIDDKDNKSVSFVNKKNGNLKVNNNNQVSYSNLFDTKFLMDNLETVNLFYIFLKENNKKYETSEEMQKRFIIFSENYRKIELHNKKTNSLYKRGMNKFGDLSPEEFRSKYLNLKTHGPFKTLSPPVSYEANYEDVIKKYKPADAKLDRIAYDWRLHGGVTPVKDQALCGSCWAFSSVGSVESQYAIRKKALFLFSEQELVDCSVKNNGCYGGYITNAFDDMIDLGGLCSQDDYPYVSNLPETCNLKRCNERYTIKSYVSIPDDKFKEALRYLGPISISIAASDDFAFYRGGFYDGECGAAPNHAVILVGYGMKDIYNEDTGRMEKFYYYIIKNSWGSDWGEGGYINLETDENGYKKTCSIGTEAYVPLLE
Kind of assay: Inhibition of Plasmodium falciparum falcipain-3 preincubated for 30 mins followed by Z-Leu-Arg-AMC substrate addition and measured up to 15 mins by spectrofluorometric analysis.

The target of another assay is T2, Falcipain 2 (Plasmodium falciparum, UniProt Q9N6S8).
T2 sequence (Q9N6S8 whole entry): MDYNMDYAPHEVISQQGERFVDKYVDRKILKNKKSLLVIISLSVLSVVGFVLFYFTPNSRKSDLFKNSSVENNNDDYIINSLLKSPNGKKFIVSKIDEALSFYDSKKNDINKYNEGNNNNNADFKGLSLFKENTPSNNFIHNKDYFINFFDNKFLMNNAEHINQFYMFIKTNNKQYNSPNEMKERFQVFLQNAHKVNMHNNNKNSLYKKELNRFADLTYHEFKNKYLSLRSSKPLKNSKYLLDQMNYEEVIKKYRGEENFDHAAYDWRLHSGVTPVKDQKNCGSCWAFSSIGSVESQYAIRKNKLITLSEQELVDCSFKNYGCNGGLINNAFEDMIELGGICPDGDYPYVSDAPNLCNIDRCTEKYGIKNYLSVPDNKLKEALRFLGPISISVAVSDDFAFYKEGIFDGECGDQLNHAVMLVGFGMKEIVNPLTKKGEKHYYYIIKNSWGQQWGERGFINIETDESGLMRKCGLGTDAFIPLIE
Kind of assay: Inhibition of Plasmodium falciparum falcipain-2 preincubated for 30 mins followed by Z-Leu-Arg-AMC substrate addition and measured up to 15 mins by spectrofluorometric analysis.

The next assay deals with Plasmodium falciparum. Nature of the assay: Antimalarial activity against Plasmodium falciparum K2 infected in human erythrocytes assessed as parasitemia after 48 hrs by YOYO-1 staining-based flow cytometric analysis. The conditions noted are these: K2, 48 h. The assay is classed as functional, organism-based. On the technique in general: In flow cytometry, cells or beads pass a laser one at a time.

Another assay relates to CHO-K1. Kind of assay: Cytotoxicity against CHOK1 cells after 24 hrs by MTT assay. It counts as cell-based. The conditions noted are these: Cricetulus griseus, CHO-K1, 24 h. (Tetrazolium assays rely on reduction of a dye to a coloured formazan, in cell work by metabolically active cells.)
Assay [5] relates to Mycobacterium tuberculosis. Nature of the assay: Antibacterial activity against Mycobacterium tuberculosis H37Rv by MABA. It counts as functional. Background: Alamar Blue is a resazurin reagent that responds to reducing activity.

By MIC is commonly meant the lowest concentration found to suppress growth. A lower MIC goes with inhibition by little substance. The IC50 is the concentration that inhibits the measured activity by half.

Converted amounts (≈) assume the structure as drawn. A value given as a limit tells only on which side of the number the result lay.

Take `Sc1nnnn1-c1ccc(Cl)c(Cl)c1`: the MIC (in assay [1]; in the assay on Mycobacterium kansasii [2]; in the assay on Mycobacterium avium; against Mycobacterium kansasii [3]) was 250 to 500 µg/mL (≈ 1010 to 2020 µM) each time.
In the case of `COc1ccc(-c2ccc(-c3nnn(CC(=O)c4ccccc4)n3)cc2)cc1`, the IC50 is 6.67 to 43.9 µM in [4], 6.67 to 43.9 µM against Falcipain 2 and over 10 µM in the assay with Plasmodium falciparum.
For `COc1cc(-c2nnnn2S(=O)(=O)c2ccccc2)ccc1OCC(O)(Cn1cncn1)c1ccc(Cl)cc1Cl` (configuration not stated), the IC50 with CHO-K1 was over 150 µg/mL. In assay [5], this compound had an MIC of 25 µg/mL (≈ 41.5 µM).
For `COc1cc(-c2nnnn2S(=O)(=O)c2ccc([N+](=O)[O-])cc2)ccc1OCC(O)(Cn1cncn1)c1ccc(F)cc1F` (configuration not stated) the same measures were over 150 µg/mL and 12.5 µg/mL (≈ 20.3 µM).
Consider `C[C@]12CC[C@@H]3c4ccc(OCCCCCCCSc5nnnn5-c5ccc(Cl)cc5)cc4CC[C@H]3[C@@H]1CCC2=O`, for which the MIC (in assay [1]; against Mycobacterium kansasii [2]; in the assay with Mycobacterium avium; in the assay on Mycobacterium kansasii [3]) was at least 500 µg/mL in each case.
As to `c1ccc(CSc2nnnn2-c2ccccc2)cc1`, the MIC (in assay [1]; against Mycobacterium kansasii [2]; in the assay with Mycobacterium avium; with Mycobacterium kansasii [3]) was 8 to 250 µg/mL (≈ 29.8 to 932 µM) in each case.
With `COc1cc(-c2nnnn2S(=O)(=O)c2ccc(OC(F)(F)F)cc2)ccc1OCC(O)(Cn1cncn1)c1ccc(F)cc1F` (configuration not stated), the IC50 in the assay on CHO-K1 was over 150 µg/mL.
`COc1ccc(C(=O)Nc2ccc(-c3nnn(CC(=O)Nc4cc(C)on4)n3)cc2)cc1`: the IC50 in assay [4] is 6.67 to 43.9 µM; against Falcipain 2 it was 6.67 to 43.9 µM; with Plasmodium falciparum it was over 10 µM.
As for `COc1cc(-c2nnnn2S(=O)(=O)c2ccc(C)cc2)ccc1OCC(O)(Cn1cncn1)c1ccc(F)cc1F` (configuration not stated), the IC50 in the assay on CHO-K1 was over 150 µg/mL.
For the compound `C[C@]12CC[C@@H]3c4ccc(OCCCCCCCSc5nnnn5-c5ccc(Cl)c(Cl)c5)cc4CC[C@H]3[C@@H]1CCC2=O`, the MIC (in [1]; against Mycobacterium kansasii [2]; in the assay on Mycobacterium avium; against Mycobacterium kansasii [3]) was at least 500 µg/mL throughout.
Take `Cc1ccc(-n2nnnc2S)cc1`: the MIC (in [1]; against Mycobacterium kansasii [2]; with Mycobacterium avium; in the assay with Mycobacterium kansasii [3]) was 250 to 500 µg/mL (≈ 1300 to 2600 µM) throughout.
In the assay on CHO-K1, `COc1ccc(S(=O)(=O)n2nnnc2-c2ccc(OCC(O)(Cn3cncn3)c3ccc(F)cc3F)c(OC)c2)cc1` (configuration not stated) showed an IC50 of over 150 µg/mL. Also, in assay [5], the MIC was 1.56 µg/mL (≈ 2.6 µM).
For `COc1cc(-c2nnnn2S(=O)(=O)c2ccc(C(C)(C)C)cc2)ccc1OCC(O)(Cn1cncn1)c1ccc(Cl)cc1Cl` (configuration not stated) the same measures were over 150 µg/mL and 1.56 to 12.5 µg/mL (≈ 2.37 to 19 µM).
With `Sc1nnnn1-c1ccc(Cl)cc1`, the MIC (in [1]; with Mycobacterium kansasii [2]; in the assay on Mycobacterium avium; against Mycobacterium kansasii [3]) was 250 to 500 µg/mL (≈ 1180 to 2350 µM) in each case.
For `Cc1cc(NC(=O)Cn2nnc(-c3ccccc3NC(=O)c3ccccc3F)n2)no1`, the IC50 is 6.67 to 43.9 µM in [4], 6.67 to 43.9 µM against Falcipain 2 and over 10 µM in the assay on Plasmodium falciparum.
In the case of `Clc1ccc(-n2nnnc2SCc2ccccc2)cc1`, the MIC (in assay [1]; against Mycobacterium kansasii [2]; with Mycobacterium avium; with Mycobacterium kansasii [3]) was 8 to 250 µg/mL (≈ 26.4 to 826 µM) throughout.
Regarding `COc1cc(-c2nnnn2S(=O)(=O)c2ccc(Br)cc2)ccc1OCC(O)(Cn1cncn1)c1ccc(Cl)cc1Cl` (configuration not stated), in the assay with CHO-K1, the IC50 was over 150 µg/mL. In assay [5], the MIC lay in the range of 1.56 to 12.5 µg/mL (≈ 2.29 to 18.3 µM).
For `COc1cc(-c2nnnn2S(=O)(=O)c2ccc(C)cc2)ccc1OCC(O)(Cn1cncn1)c1ccc(Cl)cc1Cl` (configuration not stated) the same measures were over 150 µg/mL and 1.56 to 12.5 µg/mL (≈ 2.53 to 20.3 µM).
`Cc1ccc(-n2nnnc2SCc2ccccc2)cc1`: the MIC (in assay [1]; with Mycobacterium kansasii [2]; with Mycobacterium avium; against Mycobacterium kansasii [3]) was 8 to 250 µg/mL (≈ 28.3 to 885 µM) each time.
For the compound `COc1cc(-c2nnnn2S(=O)(=O)c2ccc(F)cc2)ccc1OCC(O)(Cn1cncn1)c1ccc(Cl)cc1Cl` (configuration not stated), the IC50 in the assay with CHO-K1 is over 150 µg/mL. The MIC in assay [5] is 1.56 to 12.5 µg/mL (≈ 2.51 to 20.1 µM).
For the compound `COc1cc(-c2nnnn2S(=O)(=O)c2ccc(Br)s2)ccc1OCC(O)(Cn1cncn1)c1ccc(F)cc1F` (configuration not stated), in the assay with CHO-K1, the IC50 is over 150 µg/mL. In assay [5], this compound returned an MIC of 1.56 µg/mL (≈ 2.38 µM).
With `CCCCOc1ccc(-c2nnn(CC(=O)c3ccc(Cl)cc3)n2)cc1`, the IC50 in assay [4] was 6.67 to 43.9 µM; at Falcipain 2, 6.67 to 43.9 µM; in the assay with Plasmodium falciparum it was over 10 µM.

Source of the values: ChEMBL document CHEMBL4411274, “Recent advances of tetrazole derivatives as potential anti-tubercular and anti-malarial agents” (Eur J Med Chem, 2019).
